Test results: PubChem BioAssay (NCI)
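GI50: concentration for 50% inhibition of growth. TGI: concentration producing complete growth inhibition.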

What was measured:
Test in all cases: NCI-60 cell line screen, 384-well format
HOP-62 NSCLC = test system: HOP-62 NSCLC
HT29 colon = test system: HT29 colon
OVCAR-8 ovarian = test system: OVCAR-8 ovarian
HL-60(TB) leukemia = test system: HL-60(TB) leukemia
MDA-MB-435 melanoma = test system: MDA-MB-435 melanoma
SF-268 CNS = test system: SF-268 CNS
HCT-116 colon = test system: HCT-116 colon
DU-145 prostate = test system: DU-145 prostate
UACC-62 melanoma = test system: UACC-62 melanoma
SF-539 CNS = test system: SF-539 CNS
EKVX NSCLC = test system: EKVX NSCLC
SNB-19 CNS = test system: SNB-19 CNS
KM12 colon = test system: KM12 colon
U251 glioblastoma = test system: U251 glioblastoma
NCI-H322M lung = test system: NCI-H322M lung
OVCAR-3 ovarian = test system: OVCAR-3 ovarian
CCRF-CEM leukemia = test system: CCRF-CEM leukemia
CAKI-1 renal = test system: CAKI-1 renal
MDA-MB-231 breast = test system: MDA-MB-231 breast
SNB-75 CNS = test system: SNB-75 CNS
LOX IMVI melanoma = test system: LOX IMVI melanoma
IGROV1 ovarian = test system: IGROV1 ovarian
K-562 leukemia = test system: K-562 leukemia
SK-OV-3 ovarian = test system: SK-OV-3 ovarian
A549 NSCLC = test system: A549 NSCLC
A498 renal = test system: A498 renal
RXF 393 renal = test system: RXF 393 renal
OVCAR-4 ovarian = test system: OVCAR-4 ovarian
NCI-H23 lung = test system: NCI-H23 lung
TK-10 renal = test system: TK-10 renal
SK-MEL-2 melanoma = test system: SK-MEL-2 melanoma
MCF7 breast = test system: MCF7 breast
UO-31 renal = test system: UO-31 renal
M14 melanoma = test system: M14 melanoma
786-0 renal = test system: 786-0 renal
BT-549 breast = test system: BT-549 breast
MALME-3M melanoma = test system: MALME-3M melanoma
HOP-92 NSCLC = test system: HOP-92 NSCLC
HS 578T breast = test system: HS 578T breast
MDA-MB-468 breast = test system: MDA-MB-468 breast
MOLT-4 leukemia = test system: MOLT-4 leukemia
RPMI-8226 leukemia = test system: RPMI-8226 leukemia
UACC-257 melanoma = test system: UACC-257 melanoma
SF-295 CNS = test system: SF-295 CNS
PC-3 prostate = test system: PC-3 prostate
OVCAR-5 ovarian = test system: OVCAR-5 ovarian
NCI-H226 lung = test system: NCI-H226 lung
SN12C renal = test system: SN12C renal
NCI/ADR-RES ovarian = test system: NCI/ADR-RES ovarian
SW-620 colon = test system: SW-620 colon
ACHN renal = test system: ACHN renal
HCT-15 colon = test system: HCT-15 colon
T-47D breast = test system: T-47D breast
NCI-H522 lung = test system: NCI-H522 lung
SK-MEL-28 melanoma = test system: SK-MEL-28 melanoma

O=C1CCC(N2C(=O)c3ccccc3C2=O)C(=O)N1 (stereo not given)
GI50 (HOP-62 NSCLC): > 100 µM | TGI (HOP-62 NSCLC): > 100 µM | GI50 (HT29 colon): > 100 µM | TGI (HT29 colon): > 100 µM | GI50 (OVCAR-8 ovarian): > 100 µM | TGI (OVCAR-8 ovarian): > 100 µM | GI50 (HL-60(TB) leukemia): > 100 µM | TGI (HL-60(TB) leukemia): > 100 µM | GI50 (MDA-MB-435 melanoma): > 100 µM | TGI (MDA-MB-435 melanoma): > 100 µM | GI50 (SF-268 CNS): > 100 µM | TGI (SF-268 CNS): > 100 µM | GI50 (HCT-116 colon): > 100 µM | TGI (HCT-116 colon): > 100 µM | GI50 (DU-145 prostate): > 100 µM | TGI (DU-145 prostate): > 100 µM | GI50 (UACC-62 melanoma): > 100 µM | TGI (UACC-62 melanoma): > 100 µM | GI50 (SF-539 CNS): > 100 µM | TGI (SF-539 CNS): > 100 µM | GI50 (EKVX NSCLC): > 100 µM | TGI (EKVX NSCLC): > 100 µM | GI50 (SNB-19 CNS): > 100 µM | TGI (SNB-19 CNS): > 100 µM | GI50 (KM12 colon): > 100 µM | TGI (KM12 colon): > 100 µM | GI50 (U251 glioblastoma): > 100 µM | TGI (U251 glioblastoma): > 100 µM | GI50 (NCI-H322M lung): > 100 µM | TGI (NCI-H322M lung): > 100 µM | GI50 (OVCAR-3 ovarian): > 100 µM | TGI (OVCAR-3 ovarian): > 100 µM | GI50 (CCRF-CEM leukemia): > 100 µM | TGI (CCRF-CEM leukemia): > 100 µM | GI50 (CAKI-1 renal): > 100 µM | TGI (CAKI-1 renal): > 100 µM | GI50 (MDA-MB-231 breast): > 100 µM | TGI (MDA-MB-231 breast): > 100 µM | GI50 (SNB-75 CNS): > 100 µM | TGI (SNB-75 CNS): > 100 µM | GI50 (LOX IMVI melanoma): > 100 µM | TGI (LOX IMVI melanoma): > 100 µM | GI50 (IGROV1 ovarian): > 100 µM | TGI (IGROV1 ovarian): > 100 µM | GI50 (K-562 leukemia): > 100 µM | TGI (K-562 leukemia): > 100 µM | GI50 (SK-OV-3 ovarian): > 100 µM | TGI (SK-OV-3 ovarian): > 100 µM | GI50 (A549 NSCLC): > 100 µM | TGI (A549 NSCLC): > 100 µM | GI50 (A498 renal): > 100 µM | TGI (A498 renal): > 100 µM | GI50 (RXF 393 renal): > 100 µM | TGI (RXF 393 renal): > 100 µM | GI50 (OVCAR-4 ovarian): > 100 µM | TGI (OVCAR-4 ovarian): > 100 µM | GI50 (NCI-H23 lung): > 100 µM | TGI (NCI-H23 lung): > 100 µM | GI50 (TK-10 renal): > 100 µM | TGI (TK-10 renal): > 100 µM | GI50 (SK-MEL-2 melanoma): > 100 µM | TGI (SK-MEL-2 melanoma): > 100 µM | GI50 (MCF7 breast): > 100 µM | TGI (MCF7 breast): > 100 µM | GI50 (UO-31 renal): > 100 µM | TGI (UO-31 renal): > 100 µM | GI50 (M14 melanoma): > 100 µM | TGI (M14 melanoma): > 100 µM | GI50 ([…]-0 renal): > 100 µM | TGI (786-0 renal): > 100 µM | GI50 (BT-549 breast): > 100 µM | TGI (BT-549 breast): > 100 µM | GI50 (MALME-3M melanoma): > 100 µM | TGI (MALME-3M melanoma): > 100 µM | GI50 (HOP-92 NSCLC): > 100 µM | TGI (HOP-92 NSCLC): > 100 µM | GI50 (HS 578T breast): > 100 µM | TGI (HS 578T breast): > 100 µM | GI50 (MDA-MB-468 breast): > 100 µM | TGI (MDA-MB-468 breast): > 100 µM | GI50 (MOLT-4 leukemia): > 100 µM | TGI (MOLT-4 leukemia): > 100 µM | GI50 (RPMI-8226 leukemia): > 100 µM | TGI (RPMI-8226 leukemia): > 100 µM | GI50 (UACC-257 melanoma): > 100 µM | TGI (UACC-257 melanoma): > 100 µM | GI50 (SF-295 CNS): > 100 µM | TGI (SF-295 CNS): > 100 µM | GI50 (PC-3 prostate): > 100 µM | TGI (PC-3 prostate): > 100 µM | GI50 (OVCAR-5 ovarian): > 100 µM | TGI (OVCAR-5 ovarian): > 100 µM | GI50 (NCI-H226 lung): > 100 µM | TGI (NCI-H226 lung): > 100 µM | GI50 (SN12C renal): > 100 µM | TGI (SN12C renal): > 100 µM | GI50 (NCI/ADR-RES ovarian): > 100 µM | TGI (NCI/ADR-RES ovarian): > 100 µM | GI50 (SW-620 colon): > 100 µM | TGI (SW-620 colon): > 100 µM | GI50 (ACHN renal): > 100 µM | TGI (ACHN renal): > 100 µM | GI50 (HCT-15 colon): > 100 µM | TGI (HCT-15 colon): > 100 µM | GI50 (T-47D breast): > 100 µM | TGI (T-47D breast): > 100 µM | GI50 (NCI-H522 lung): > 100 µM | TGI (NCI-H522 lung): > 100 µM | GI50 (SK-MEL-28 melanoma): > 100 µM | TGI (SK-MEL-28 melanoma): > 100 µM
